Experimental data published in ChEMBL document CHEMBL1201862, “PubChem BioAssay data set” (2004).
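Step 1: Grow cells in 96-well plates. Step 2: Expose to compound for 48 hours at 5 concentrations. Step 3: Interpolate endpoints linearly; if unreached, use highest concentration. GI50: concentration for 50% inhibition of growth.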 The source made the active and inactive calls. No stated cut-off is given here; in the data, active = GI50 up to about 1.1 µM and inactive = higher.

Columns and labels:
Assay in all cases: growth of human tumour cells (NCI), 48 h
[1] = system: CAKI-1
[2] = system: SK-OV-3
[3] = system: TK-10
[4] = system: M14
[5] = system: UACC-257
[6] = system: HOP-92
[7] = system: HCT-116
[8] = system: OVCAR-3
[9] = system: LOX IMVI
[10] = system: SF-268
[11] = system: SF-295
[12] = system: SK-MEL-2
[13] = system: NCI-H460
[14] = system: K562
[15] = system: HL-60
[16] = system: DU-145
[17] = system: MCF7
[18] = system: RXF 393
[19] = system: T47D

Row | SMILES | GI50 [1] | GI50 [2] | GI50 [3] | GI50 [4] | GI50 [5] | GI50 [6] | GI50 [7] | GI50 [8] | GI50 [9] | GI50 [10] | GI50 [11] | GI50 [12] | GI50 [13] | GI50 [14] | GI50 [15] | GI50 [16] | GI50 [17] | GI50 [18] | GI50 [19]
1 | CCOC(=O)C1(C(=O)OCC)C[C@H](C)[C@](C)(O)C1 | > 100 µM (inactive) | > 100 µM (inactive) | > 100 µM (inactive) | > 100 µM (inactive) | > 100 µM (inactive) | > 100 µM (inactive) | > 100 µM (inactive) | > 100 µM (inactive) | > 100 µM (inactive) | > 100 µM (inactive) | > 100 µM (inactive) | > 100 µM (inactive) | > 100 µM (inactive) | > 100 µM (inactive) | 37.8 µM (inactive) | > 100 µM (inactive) | > 100 µM (inactive) | > 100 µM (inactive) | 
2 | O=C1CC(C(OCc2ccccc2)C(OCc2ccccc2)C(OCc2ccccc2)C(COCc2ccccc2)OCc2ccccc2)CC(=O)N1 (stereo not drawn) |  |  | > 100 µM (inactive) | > 100 µM (inactive) | > 100 µM (inactive) | 18 µM (inactive) |  | > 100 µM (inactive) | > 100 µM (inactive) | > 100 µM (inactive) | > 100 µM (inactive) |  | > 100 µM (inactive) | > 100 µM (inactive) | > 100 µM (inactive) | > 100 µM (inactive) |  | 6.52 µM (inactive) | 
3 | O=C1C(=C2SC(c3ccccc3)(c3ccccc3)c3ccccc32)C(=O)c2ccccc21 | > 100 µM (inactive) | > 100 µM (inactive) | > 100 µM (inactive) | > 100 µM (inactive) | 72.4 µM (inactive) | > 100 µM (inactive) | > 100 µM (inactive) | > 100 µM (inactive) | > 100 µM (inactive) | > 100 µM (inactive) | > 100 µM (inactive) |  | > 100 µM (inactive) | > 100 µM (inactive) |  | > 100 µM (inactive) | > 100 µM (inactive) | > 100 µM (inactive) | 
4 | CC(=O)Nc1ccc2cc(C#N)c(=O)[nH]c2n1 | > 100 µM (inactive) | > 100 µM (inactive) | > 100 µM (inactive) | > 100 µM (inactive) | > 100 µM (inactive) | > 100 µM (inactive) | > 100 µM (inactive) | > 100 µM (inactive) | > 100 µM (inactive) | > 100 µM (inactive) | > 100 µM (inactive) | > 100 µM (inactive) | > 100 µM (inactive) | > 100 µM (inactive) |  |  | > 100 µM (inactive) | > 100 µM (inactive) | > 100 µM (inactive)
5 | Cc1ccc(/C=C2\CCCc3ccccc3C2=O)cc1 | 27.2 µM (inactive) | 13.2 µM (inactive) | 25.1 µM (inactive) | 3.21 µM (inactive) | 21.9 µM (inactive) | 18.5 µM (inactive) | 13.7 µM (inactive) | 15 µM (inactive) | 14.9 µM (inactive) | 11.2 µM (inactive) | 3.45 µM (inactive) | 2.38 µM (inactive) | 7.23 µM (inactive) | 12.2 µM (inactive) | 11.2 µM (inactive) | 22.2 µM (inactive) | 18.3 µM (inactive) |  | 
6 | CC(C)(C)c1cc(C(=O)O)c(C(c2ccccc2)c2ccccc2C(=O)O)c(C(=O)O)c1 (stereo not drawn) | > 100 µM (inactive) | 21.7 µM (inactive) | > 100 µM (inactive) | > 100 µM (inactive) | > 100 µM (inactive) |  | > 100 µM (inactive) | > 100 µM (inactive) | > 100 µM (inactive) | > 100 µM (inactive) | > 100 µM (inactive) | > 100 µM (inactive) | > 100 µM (inactive) | > 100 µM (inactive) | > 100 µM (inactive) |  |  | > 100 µM (inactive) | 
7 | CC(C)COC(c1ccc2c(c1)OCO2)C(C)Br (stereo not drawn) | 30.3 µM (inactive) | 24.1 µM (inactive) | 30.9 µM (inactive) | 21.1 µM (inactive) | 23 µM (inactive) | 21.7 µM (inactive) | 17.2 µM (inactive) | 16.2 µM (inactive) | 17.4 µM (inactive) | 25.2 µM (inactive) | 20 µM (inactive) | 21.8 µM (inactive) | 20 µM (inactive) | 46.7 µM (inactive) |  | 33.1 µM (inactive) | 31.4 µM (inactive) | 10.5 µM (inactive) | 
8 | CC(C)=CC[C@H]1C[C@]2(CC=C(C)C)C(=O)[C@@](CC=C(C)C)(C(=O)C(C(=O)c3ccccc3)=C2O)C1(C)C [6-EPI-CLUSIANONE] | 4.44 µM (inactive) | 5.32 µM (inactive) | 5.15 µM (inactive) | 6.65 µM (inactive) | 4.71 µM (inactive) | 4.31 µM (inactive) | 3.63 µM (inactive) |  | 3.46 µM (inactive) | 10.2 µM (inactive) | 4.27 µM (inactive) | 2.67 µM (inactive) | 3.3 µM (inactive) | 3.87 µM (inactive) |  |  | 4.59 µM (inactive) | 6.75 µM (inactive) | 5.2 µM (inactive)
9 | COc1ccc(/C=N/Nc2nnc3c(n2)c2ccccc2c2nn(-c4ccccc4Cl)nc23)cc1 | > 100 µM (inactive) | > 100 µM (inactive) | > 100 µM (inactive) | > 100 µM (inactive) | > 100 µM (inactive) | > 100 µM (inactive) | > 100 µM (inactive) | > 100 µM (inactive) | > 100 µM (inactive) | > 100 µM (inactive) | > 100 µM (inactive) | > 100 µM (inactive) |  | > 100 µM (inactive) |  | > 100 µM (inactive) |  | > 100 µM (inactive) | > 100 µM (inactive)
10 | CC(=O)OCC(OC(C)=O)C1C[C@H]2O[C@@H]3[C@H](C[C@H]2O1)O[C@@]1(C[C@@H]3C)C[C@H](C)[C@@H]2O[C@]3(C[C@@H]2O1)C[C@H]1O[C@H]2[C@H](C)[C@H]4OC(=O)CC5CC[C@H]6OC7[C@H]8O[C@]9(CC[C@H]%10CC(O)(CO)[C@H](CC[C@H]%11C[C@@H](C)C(O)(CO)C(C[C@@H]4O[C@H]2C[C@H]1O3)O%11)O%10)CC8O[C@@H]7[C@@H](O9)[C@H]6O5 (stereo partly drawn) | 0.0127 µM (active) | 0.0284 µM (active) |  | 0.00935 µM (active) | 0.00555 µM (active) | 0.0504 µM (active) | 0.00438 µM (active) | 0.00655 µM (active) | 0.0146 µM (active) | 0.00986 µM (active) | 0.0043 µM (active) | 0.116 µM (active) | 0.00371 µM (active) | 0.00116 µM (active) |  | 0.00386 µM (active) | 0.00281 µM (active) | 0.00253 µM (active) | 
11 | N=c1oc2ccc3ccccc3c2cc1C(N)=O | 43.5 µM (inactive) | 96.2 µM (inactive) |  | 55.5 µM (inactive) | > 100 µM (inactive) | 53 µM (inactive) | 36.9 µM (inactive) | 72.9 µM (inactive) | 31.2 µM (inactive) | 31.4 µM (inactive) |  | 19.4 µM (inactive) | 46.3 µM (inactive) |  | 39.2 µM (inactive) | 71 µM (inactive) |  | > 100 µM (inactive) | 22.6 µM (inactive)
12 | NC1(c2cc3ccccc3s2)CCCCCC1 | 13.8 µM (inactive) | 17.1 µM (inactive) | 15.4 µM (inactive) | 18.8 µM (inactive) | 16.3 µM (inactive) | 14 µM (inactive) | 16.1 µM (inactive) | 15.7 µM (inactive) | 17.9 µM (inactive) |  | 18.3 µM (inactive) | 10.4 µM (inactive) | 15 µM (inactive) | 10.1 µM (inactive) | 14.8 µM (inactive) | 17.2 µM (inactive) | 16.1 µM (inactive) | 12.7 µM (inactive) | 
